Patent publication US20200087248A1, “Fluoroallylamine Derivative And Use Thereof” (SICHUAN KELUN-BIOTECH BIOPHARMACEUTICAL CO., LTD., priority 2017, published 2020)
Counter-ions that a name gives are not always drawn.

Experiments:
VAP-1 = target: T1, VAP-1 (Homo sapiens, UniProt Q16853); assay: Inhibition of the enzymatic activity of VAP-1 in vitro (Amplex Red); assay type: biochemical; conditions: VAP-1 protein about 20 nM, 10 min pre-incubation, benzylamine substrate; read-out: IC50, inhibition against the enzymatic activity of VAP-1
T1 construct: purchased R&D Systems
T1 sequence (Q16853 1-763): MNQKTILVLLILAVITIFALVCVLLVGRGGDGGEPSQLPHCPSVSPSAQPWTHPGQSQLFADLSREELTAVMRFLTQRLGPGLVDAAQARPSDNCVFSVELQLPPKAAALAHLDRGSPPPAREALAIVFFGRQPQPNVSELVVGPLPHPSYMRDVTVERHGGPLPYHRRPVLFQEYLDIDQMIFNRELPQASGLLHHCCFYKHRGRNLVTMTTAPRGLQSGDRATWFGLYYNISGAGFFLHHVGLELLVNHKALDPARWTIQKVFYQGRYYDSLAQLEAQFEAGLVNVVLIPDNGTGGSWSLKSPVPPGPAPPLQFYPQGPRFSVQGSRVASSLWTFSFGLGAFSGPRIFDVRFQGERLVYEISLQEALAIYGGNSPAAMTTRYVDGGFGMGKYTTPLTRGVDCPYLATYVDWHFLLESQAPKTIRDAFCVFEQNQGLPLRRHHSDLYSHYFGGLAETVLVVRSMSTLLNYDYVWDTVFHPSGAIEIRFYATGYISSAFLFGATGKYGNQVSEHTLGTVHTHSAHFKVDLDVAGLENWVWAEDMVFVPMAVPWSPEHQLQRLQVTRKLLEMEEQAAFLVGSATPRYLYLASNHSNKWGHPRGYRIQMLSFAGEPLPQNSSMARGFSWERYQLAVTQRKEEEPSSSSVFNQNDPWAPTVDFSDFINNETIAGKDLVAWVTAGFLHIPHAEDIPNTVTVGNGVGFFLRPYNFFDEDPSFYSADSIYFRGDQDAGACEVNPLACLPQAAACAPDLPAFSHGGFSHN
Procedure: Inhibition Experiment Against the Enzymatic Activity of VAP-1(Vascular Adhesion Protein 1) in vitro
Test kit: Amplex® Red Monoamine Oxidase Assay, Manufacturer: ThermoFisher
Reaction buffer solution: 50 mM PBS, pH 7.4
Enzyme: VAP-1, Manufacturer: R&D Systems
VAP-1 protein (about 20 nM) and different concentrations of the test compound were pre-incubated at room temperature for 10 minutes, followed by an addition of […] benzylamine hydrochloride, 1 U/mL HRP and 200 μM Amplex Red reagent according to the specification of the test kit to start the reaction. The reaction plate was placed in the enzyme marker, and in kinetic mode, fluorescence signals were measured at Ex/Em=540/590 nm. The relative inhibition activity of each concentration group was calculated, wherein the ratio (slope) of fluorescence signal to reaction time in the linear range is the reaction rate, the vehicle group (DMSO) is the negative control, and the reaction buffer solution group (without enzymes and the compounds) is the blank control. The half inhibition concentration (IC50) of the compound was calculated according to four-parameter model fitting curve.

hERG = target: T2, hERG (Homo sapiens, UniProt Q12809); assay: hERG fluorescence polarization inhibition experiment; conditions: hERG cell membrane, 25° C. 2 hours, read-out: hERG (IC50 range, competitive binding vs tracer)
T2 construct: purchased ThermoFisher; host or cells: hERG cell membrane supplied with the kit
T2 sequence (Q12809 whole entry): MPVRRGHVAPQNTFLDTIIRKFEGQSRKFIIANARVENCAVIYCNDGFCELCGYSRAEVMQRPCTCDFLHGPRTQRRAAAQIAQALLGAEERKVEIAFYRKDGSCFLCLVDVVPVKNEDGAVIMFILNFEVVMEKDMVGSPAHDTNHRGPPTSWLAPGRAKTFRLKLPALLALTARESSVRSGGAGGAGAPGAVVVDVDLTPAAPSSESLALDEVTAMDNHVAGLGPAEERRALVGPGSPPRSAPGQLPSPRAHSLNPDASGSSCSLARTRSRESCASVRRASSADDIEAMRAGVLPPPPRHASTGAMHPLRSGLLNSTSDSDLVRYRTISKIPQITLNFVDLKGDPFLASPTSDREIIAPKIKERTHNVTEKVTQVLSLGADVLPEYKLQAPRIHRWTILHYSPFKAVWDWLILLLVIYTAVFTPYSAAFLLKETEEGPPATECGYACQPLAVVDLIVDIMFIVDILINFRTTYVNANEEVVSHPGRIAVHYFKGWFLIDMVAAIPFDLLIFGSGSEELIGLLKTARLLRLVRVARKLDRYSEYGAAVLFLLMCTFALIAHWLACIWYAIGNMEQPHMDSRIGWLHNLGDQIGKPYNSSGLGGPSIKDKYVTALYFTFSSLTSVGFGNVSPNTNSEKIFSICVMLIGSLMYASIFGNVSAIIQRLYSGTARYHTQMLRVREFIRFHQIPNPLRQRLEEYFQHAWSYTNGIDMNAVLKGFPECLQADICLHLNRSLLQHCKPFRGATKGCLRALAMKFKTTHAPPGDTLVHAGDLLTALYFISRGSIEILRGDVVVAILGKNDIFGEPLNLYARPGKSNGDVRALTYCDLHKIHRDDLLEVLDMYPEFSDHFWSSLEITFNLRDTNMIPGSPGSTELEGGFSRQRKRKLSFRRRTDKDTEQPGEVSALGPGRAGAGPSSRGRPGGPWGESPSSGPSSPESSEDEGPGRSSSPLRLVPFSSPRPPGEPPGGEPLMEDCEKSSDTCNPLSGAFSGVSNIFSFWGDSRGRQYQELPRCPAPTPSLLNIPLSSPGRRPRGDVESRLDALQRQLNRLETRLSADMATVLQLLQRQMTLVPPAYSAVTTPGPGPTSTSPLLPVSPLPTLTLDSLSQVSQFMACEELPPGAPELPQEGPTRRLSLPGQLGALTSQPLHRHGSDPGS
Procedure: hERG (Ether-a-go-go-related Gene Potassium Channel) Inhibition Experiment
Reagent: Predictor™ hERG Fluorescence Polarization Assay Kit, Manufacturer: ThermoFisher
The above test kit was used to evaluate the potential of the compound for inducing heart QT prolongation. According to the method as indicated in the specification of the test kit, the test compound, the positive control (E4031) and negative control (Experimental buffer solution) in the kit were added to a microwell plate containing hERG cell membrane, and then a tracer having high affinity to hERG was added. The microwell plate was then incubated at 25° C. for 2 hours, a BMG PHAREStar polyfunctional enzyme marker was used to test the variations in the fluorescent polarization value. By calculating the percent inhibition rates (%) at different concentrations, the range of the half inhibition concentration (IC50) was determined:
Percent inhibition rate (%)=(1-(mP of the test compound-mP of 30 μM E4031)/(mP of experimental buffer solution-mP of 30 μM E4031))*100.

SMILES	IC50 (VAP-1) [nM]	IC50 (hERG) [nM]
NCC(=CF)COc1ccc(C(=O)Nc2cccc3ccccc23)cc1 [TM8, 4-((2-(aminomethyl)-3-fluoroallyl)oxy)-N-(naphthyl)benzoamide trifluoroacetate]	2.2 ± 0.1	–
NC/C(=C\F)COc1ccc2c(c1)CCNC2=O [TM26-E, (E)-6-((2-aminomethyl-3-fluoroallyl)oxy)-3,4-dihydroisoquinolin-1(2H)-one trifluoroacetate]	9.9 ± 1.2	> 10000
NC/C(=C\F)COc1ccc2c(c1)CN(Cc1ccc(Cl)cc1)C2=O [TM33-E, (E)-5-((2-aminomethyl-3-fluoroallyl)oxy)-2-(4-chlorobenzyl)isoindolin-1-one]	4.9 ± 0.5	> 10000
NC/C(=C/F)COc1ccc2c(c1)CN(Cc1ccc(Cl)cc1)C2=O [TM33-Z, (Z)-5-((2-aminomethyl-3-fluoroallyl)oxy)-2-(4-chlorobenzyl)isoindolin-1-one]	6.3 ± 1.2	–
NC/C(=C\F)COc1ccc(-c2nc3ccc(Cl)cc3s2)cc1 [TM41-E, (E)-2-(4-(6-chloro-benzothiazol-2-yl)phenoxymethyl)-3-fluoroallylamine trifluoroacetate]	3.1 ± 0.5	–
NC/C(=C/F)COc1ccc(-c2nc3ccc(Cl)cc3s2)cc1 [TM41-Z, (Z)-2-(4-(6-chloro-benzothiazol-2-yl)phenoxymethyl)-3-fluoroallylamine trifluoroacetate]	3.5 ± 0.4	–
NC/C(=C/F)COc1ccc(-c2nc3ccccc3[nH]2)cc1 [TM42-Z, (Z)-2-(4-(1H-benzoimidazol-2-yl)phenoxymethyl)-3-ftuoroallylamine trifluoroacetate]	1.5 ± 0.1	> 10000
NC/C(=C\F)COc1ccc(C(=O)N2CCC(c3ccccc3)CC2)cc1 [TM44-E, (E)-(4-((2-aminomethyl-3-fluoroallyl)oxy)phenyl)-(4-phenylpiperidine-1-yl) methanone trifluoroacetate]	12.9 ± 4.4	–
NC/C(=C/F)COc1ccc(C(=O)N2CCC(c3ccccc3)CC2)cc1 [TM44-Z, (Z)-(4-((2-aminomethyl-3-fluoroallyl)oxy)phenyl)-(4-phenylpiperidine-1-yl) methanone trifluoroacetate]	9.7 ± 0.9	–
NC/C(=C\F)COc1ccc(C(=O)N2CCc3ccccc3C2)cc1 [TM45-E, (E)-(4-((2-aminomethyl-3-fluoroallyl)oxy)phenyl)-(3,4-di hydroisoquinoline-2 (1H)-yl)methanone trifluoroacetate]	2.4 ± 0.7	> 10000
NC/C(=C/F)COc1ccc(C(=O)N2CCc3ccccc3C2)cc1 [TM45-Z, (Z)-(4-((2-aminomethyl-3-fluoroallyl)oxy)phenyl)-(3,4-dihydroiso-quinoline-2(1H)-yl)methanone trifluoroacetate]	1.1 ± 0.1	> 10000
NC/C(=C\F)COc1ccc(C(=O)N2CCC(c3ccccc3)CC2)cc1F [TM48-E, (E)-(4-((2-(aminomethyl)-3-fluoroally)oxy)-3-fluorophenyl)-(4-phenylpiperidin-1-yl)methanone trifluoroacetate]	9.2 ± 1.1	–
NC/C(=C/F)COc1ccc(C(=O)N2CCC(c3ccccc3)CC2)cc1F [TM48-Z, (Z)-(4-((2-(aminomethyl)-3-fluoroallyl)oxy)-3-fluorophenyl)-(4-phenylpiperidin-1-yl)methanone trifluoroacetate]	10.6 ± 1.4	–
NC/C(=C\F)COc1ccc(C(=O)N[C@H]2CCCc3ccccc32)cc1 [TM63-E, (E)-(S)-N-(1,2,3,4-tetrahydro-1-naphthyl)-4-(2-aminomethyl-3-fluoroallyl)oxy)-benzamide trifluoroacetate]	5.7 ± 0.8	> 10000
NC/C(=C\F)COc1ccc(C(=O)Nc2ccc(F)cc2)cc1Cl [TM65-E, (E)-N-(4-fluorophenyl)-4-((2-aminomethyl-3-fluoroallyl)oxy)-3-chloro-benzamide trifluoroacetate]	4.1 ± 0.7	–
NC/C(=C/F)COc1ccc(C(=O)Nc2ccc(F)cc2)cc1Cl [TM65-Z, (Z)-N-(4-fluorophenyl)-4-((2-aminomethyl-3-fluoroallyl)oxy)-3-chloro-benzamide trifluoroacetate]	1.7 ± 0.3	–
NCC(=CF)COc1ccc(C(=O)N2CCc3ccccc3C2)cc1F [TM72, (4-((2-aminomethyl-3-fluoroallyl)oxy)-3-fluorophenyl)-(3,4-tetrahydroisoquinoline-2(1H)-yl)methanone trifluoroacetate]	3.4 ± 0.5	–
NC/C(=C\F)COc1ccc(C(=O)N2CCc3c(Cl)cccc3C2)cc1F [TM73-E, (E)-(4-((2-aminomethyl-3-fluoroallyl)oxy)-3-fluorophenyl)-(5-chloro-3,4-di-hydroisoquinoline-2(1H)-yl)methanone trifluoroacetate]	4.2 ± 0.3	–
NC/C(=C/F)COc1ccc(C(=O)N2CCc3c(Cl)cccc3C2)cc1F [TM73-Z, (Z)-(4-((2-aminomethyl-3-fluoroallyl)oxy)-3-fluorophenyl)-(5-chloro-3,4-di-hydroisoquinoline-2(1H)-yl)methanone trifluoroacetate]	3.7 ± 0.3	–
NC/C(=C\F)COc1ccc(-c2nc3ccc(Cl)cc3s2)cc1F [TM74-E, (E)-2-(4-(6-chloro-benzothiazol-2-yl)-2-fluorophenoxymethyl)-3-fluoroallylamine trifluoroacetate trifluoroacetate]	3.2 ± 0.2	–
NC/C(=C/F)COc1ccc(-c2nc3ccc(Cl)cc3s2)cc1F [TM74-Z, (Z)-2-(4-(6-chloro-benzothiazol-2-yl)-2-fluorophenoxymethyl)-3-fluoroallylamine trifluoroacetate trifluoroacetate]	5.3 ± 0.2	–

Second part, led by results:

IC50 (VAP-1) [nM]	SMILES	IC50 (hERG) [nM]
0.5	NCC(=CF)COc1ccc(C(=O)Nc2ccccc2)cc1 [TM1, N-phenyl-4-((2-aminomethyl-3-fluoroallyl)oxy)-benzamide trifluoroacetate]	> 10000
1 ± 0.1	NCC(=CF)COc1ccc(-c2ncccn2)cc1 [TM39, 2-(4-(2-pyrimidyl)phenoxymethyl)-3-fluoroallylamine trifluoroacetate]	> 30000
6.5 ± 0.5	NCC(=CF)COc1ccc(C(=O)N2CCC(c3ccccc3)CC2)cc1F [TM48, (4-((2-aminomethyl-3-fluoroallyl)oxy)-3-fluorophenyl)-(4-phenylpiperidin-1-yl)methanone trifluoroacetate]	–
1.8 ± 0.2	CN(C)c1cccc(NC(=O)c2ccc(OCC(=CF)CN)cc2)c1 [TM62, N-(3-dimethylaminophenyl)-4-(2-aminomethyl-3-fluoroallyloxy)-benzamide trifluoroacetate]	> 30000
9.9 ± 1.8	NCC(=CF)COc1ccc(C(=O)N2CCc3cc(C(F)(F)F)ccc3C2)cc1 [TM68, (4-(2-aminomethyl-3-fluoroallyloxy)phenyl)-(6-trifluoromethyl-3,4-dihydroisoquinol-2(1H)-yl)-methanone trifluoroacetate]	–
10.4 ± 1.4	NCC(=CF)COc1ccc(C(=O)N2CCc3ccccc3[C@@H]2c2ccccc2)cc1 [TM69, (S)-(4-(2-aminomethyl)-3-fluoroallyloxy)phenyl)-(1-phenyl-3,4-dihydroisoquinol-2(1H)-yl)-methanone trifluoroacetate]	–
2.4 ± 0.2	NCC(=CF)COc1ccc(C(=O)N2Cc3ccc(Cl)cc3C2)cc1 [TM71, (4-(2-aminomethyl-3-fluoroallyloxy)phenyl)-(5-chloroisoindolin-2-yl)-methanone trifluoroacetate]	–
